Laboratory results as given in patent publication US12570612B2, “Substituted nitrogen heterocyclic compound and anesthetic effect thereof” (priority 2019, dated 2026).
Where two headings read alike, the source gives them in different places.

Columns and labels:
Sprague-Dawley rats [1] = experiment: animal or person; type: in vivo; details: rats; for ED50: LORR, up and down method, tail vein, class symbols
Excerpt: (§1) Evaluating indicator: The end point of anesthesia: the disappearance of forepaw righting reflex (lorr) was used as the end point of anesthesia; General anesthesia effect: the disappearance of forepaw righting reflex in rats lasting for 30 seconds is taken as the index of general anesthesia effect; Anesthesia recovery index: the recovery of rat forepaw righting reflex was used as the index of anesthesia recovery.

Sprague-Dawley rats [2] = experiment: Pharmacological effect and adverse reactions under the equivalent dose (2ED50), Group D compounds; type: in vivo; details: for Righting reflex duration / Sedation duration / Onset time: 2ED50, tail vein, rats, n=8; for Adverse reaction: Convulsions / Adverse reaction: Cough, broken-winded / Adverse reaction: Euphoria / Adverse reaction: Four limbs rigidity / Adverse reaction: Red urine / Adverse reaction: Slower breathing, Tetany convulsion / Adverse reaction: Systemic stiffness, Convulsions, Opisthotonus / Adverse reaction: Tongue stretching / Adverse reaction: Tremor: equivalent dose (2 × ED50), number of rats of n = 8
Excerpt: (§2) Evaluation index: onset time: from the completion of drug injection to the disappearance of forepaw righting reflex in rats; Duration of anesthesia: the time from the disappearance of rat forepaw righting reflex to the recovery of rat forepaw righting reflex; Recovery time of anesthesia: the time from the […] to complete recovery;

Sprague-Dawley rats [3] = type: in vivo; details: tail vein
Sprague-Dawley rats [4] = experiment: animal or person; type: in vivo; details: rats; for ED50: Rattus norvegicus, LORR, up and down method, tail vein, class symbols, read-out: ED50
Excerpt: as §1, with “LORR” for “the disappearance of forepaw righting reflex (lorr)”

Sprague-Dawley rats [5] = experiment: Pharmacological effect and adverse reactions under the equivalent dose (2ED50), Group C compounds; type: in vivo; details: for Righting reflex duration / Sedation duration / Onset time: 2ED50, tail vein, rats, n=8; for Adverse reaction: Convulsions / Adverse reaction: Cough, broken-winded / Adverse reaction: Euphoria / Adverse reaction: Red urine / Adverse reaction: Slower breathing, Tetany convulsion / Adverse reaction: Systemic stiffness, Convulsions, Opisthotonus / Adverse reaction: Tongue stretching / Adverse reaction: Tremor / Adverse reaction: the four limbs rigidity: equivalent dose (2ED50), number of rats of n = 8
Excerpt: as §2

SD rats = details: for After the infusion is stopped: Righting reflex recovery time / Recovery time after stopping infusion: after 1 hour continuous infusion at 2 times the MIR; for After the infusion is stopped: Righting reflex recovery time / Recovery time after stopping infusion / Sedation onset time: SD rats; for Types and incidence of adverse reactions: Red urine / Types and incidence of adverse reactions: Tongue stretching / Types and incidence of adverse reactions: Tremor: continuous infusion 2 x MIR 1 hour, rats affected/rats; for Sedation onset time: continuous tail vein infusion at 2 times the MIR
Method: Experimental Methods: Adult male SD rats with body weight ranging from 250 g to 350 g were selected for continuous infusion test.
Evaluation indexes: the time from the beginning of continuous infusion to the […] of sedation in rats; the time from the cessation of infusion to the restoration of the forepaw turning reflex after 1 hour of continuous infusion; the time from the cessation of infusion to the complete restoration of rats after 1 hour of continuous infusion.

Sprague-Dawley rats [6] = type: in vivo; details: tail vein; remark: listed apart in the source
[7] = Rattus norvegicus, read-out: ED50

Structure (SMILES) | ED50 (Sprague-Dawley rats [1]; [7]) | Approximate therapeutic index (Sprague-Dawley rats [1]) | Righting reflex duration (Sprague-Dawley rats [2]) | Sedation duration (Sprague-Dawley rats [2]) | Adverse reaction: Convulsions (Sprague-Dawley rats [2]) | Adverse reaction: Cough, broken-winded (Sprague-Dawley rats [2]) | Adverse reaction: Euphoria (Sprague-Dawley rats [2]) | Adverse reaction: Four limbs rigidity (Sprague-Dawley rats [2]) | Adverse reaction: Red urine (Sprague-Dawley rats [2]) | Adverse reaction: Slower breathing, Tetany convulsion (Sprague-Dawley rats [2]) | Adverse reaction: Systemic stiffness, Convulsions, Opisthotonus (Sprague-Dawley rats [2]) | Adverse reaction: Tongue stretching (Sprague-Dawley rats [2]) | Adverse reaction: Tremor (Sprague-Dawley rats [2]) | Minimal lethal dose (Sprague-Dawley rats [3]) | Onset time (Sprague-Dawley rats [2]; unit min) | ED50 (Sprague-Dawley rats [4]) | Approximate therapeutic index (Sprague-Dawley rats [4]) | Righting reflex duration (Sprague-Dawley rats [5]) | Sedation duration (Sprague-Dawley rats [5]) | Adverse reaction: Convulsions (Sprague-Dawley rats [5]) | other results
CCOC(OCC)C(=O)c1cncn1[C@H](C)c1ccccc1 [Compound D88] | 1 to 2 mg/kg | >10.3 | 1.86 ± 1.02 min | 7.08 ± 1.06 min | 0 | 0 | 0 | 1 | 8 | 0 | 7 | 1 | 1 | >2.6 mg/kg | – | – | – | – | – | – | Onset time (Sprague-Dawley rats [2]; unit s): <0.5 min
CCSC(OC)(OC)C(=O)c1ccnn1[C@H](C)c1ccccc1 [Compound D2] | 2 to 6 mg/kg | >6.6 | 5.82 ± 1.87 min | 13.71 ± 3.89 min | 0 | 2 | 3 | 0 | 8 | 1 | 0 | 2 | 8 | >10.5 mg/kg | <1 min | – | – | – | – | – | –
COC(OC)(OC(C)C)C(=O)c1ccnn1[C@H](C)c1ccccc1 [Compound D4] | 2 to 6 mg/kg | >5.0 | 0.98 ± 0.35 min | 7.28 ± 1.56 min | 0 | 0 | 0 | 0 | 8 | 0 | 0 | 0 | 0 | >10.1 mg/kg | <1 min | – | – | – | – | – | –
COC(OC)(OC)C(=O)c1cnnn1[C@H](C)c1ccccc1 [Compound D42] | 0.04 to 0.5 mg/kg | >4.2 | 1.38 ± 0.15 min | 3.83 ± 0.74 min | 6 | 0 | 0 | 0 | 8 | 0 | 0 | 1 | 1 | >1.8 mg/kg | <1 min | – | – | – | – | – | –
COC(=O)C(=O)c1ccnn1[C@H](C)c1ccccc1 [Compound D11] | > 6 mg/kg | >4.6 | – | – | – | – | – | – | – | – | – | – | – | >30.2 mg/kg | – | – | – | – | – | – | –
C#CCOCC(OC)(OC)C(=O)c1cncn1[C@H](C)c1ccccc1 [Compound D74] | – | >16.6 | 1.29 ± 0.49 min | 4.78 ± 1.24 min | 0 | 0 | 0 | 1 | 8 | 0 | 0 | 0 | 1 | >10.2 mg/kg | <1 min | – | – | – | – | – | ED50 (Sprague-Dawley rats [1]): +++++ (+++++ indicates that the measured ED50 is greater than 6.00 mg/kg (excluding 6.00 mg/kg))
CCOC(OC)(OC)C(=O)c1cncn1[C@H](C)c1ccccc1 [Compound D78] | 0.5 to 1 mg/kg | >6.2 | 4.02 ± 1.35 min | 7.29 ± 1.20 min | 0 | 0 | 0 | 0 | 8 | 0 | 2 | 1 | 0 | >6.8 mg/kg | – | – | – | – | – | – | Onset time (Sprague-Dawley rats [2]; unit s): <0.5 min
CCOCC(=O)c1cncn1[C@H](C)c1ccccc1 [Compound C34] | – | – | – | – | – | – | – | – | – | – | – | – | – | – | – | 2 to 10 mg/kg | >2.6 | 2.26 ± 0.81 min | 4.89 ± 0.98 min | 0 | Onset time (Sprague-Dawley rats [5]; unit s): <30 s; Adverse reaction: Cough, broken-winded (Sprague-Dawley rats [5]): 0; Adverse reaction: Euphoria (Sprague-Dawley rats [5]): 1; Adverse reaction: Red urine (Sprague-Dawley rats [5]): 8; Adverse reaction: Slower breathing, Tetany convulsion (Sprague-Dawley rats [5]): 0; Adverse reaction: Systemic stiffness, Convulsions, Opisthotonus (Sprague-Dawley rats [5]): 6; Adverse reaction: Tongue stretching (Sprague-Dawley rats [5]): 1; Adverse reaction: Tremor (Sprague-Dawley rats [5]): 0; Adverse reaction: the four limbs rigidity (Sprague-Dawley rats [5]): 0; After the infusion is stopped: Righting reflex recovery time (SD rats): 15 to 20 min; Recovery time after stopping infusion (SD rats): 22 to 28 min; Types and incidence of adverse reactions: Red urine (SD rats): 6/6; Types and incidence of adverse reactions: Tongue stretching (SD rats): Tongue stretching(4/6); Types and incidence of adverse reactions: Tremor (SD rats): 2/6; Sedation onset time (SD rats): <5 min; Minimal lethal dose (Sprague-Dawley rats [6]): >12.8 mg/kg
C=CCOC(OC)(OC)C(=O)c1ccnn1[C@H](C)c1ccccc1 [Compound D7] | 0.5 to 1 mg/kg | >5.4 | 0.55 ± 0.59 min | 8.52 ± 2.29 min | 0 | 0 | 0 | 1 | 8 | 0 | 0 | 1 | 1 | >3.2 mg/kg | <1 min | – | – | – | – | – | –
C[C@H](c1ccccc1)n1cncc1C(=O)COCCC1CCC1 [Compound C40] | – | – | – | – | – | – | – | – | – | – | – | – | – | – | – | 0.5 to 1 mg/kg | >13.8 | 3.76 ± 1.75 min | 10.48 ± 2.58 min | 1 | Onset time (Sprague-Dawley rats [5]; unit s): <30 s; Adverse reaction: Cough, broken-winded (Sprague-Dawley rats [5]): 0; Adverse reaction: Euphoria (Sprague-Dawley rats [5]): 0; Adverse reaction: Red urine (Sprague-Dawley rats [5]): 8; Adverse reaction: Slower breathing, Tetany convulsion (Sprague-Dawley rats [5]): 1; Adverse reaction: Systemic stiffness, Convulsions, Opisthotonus (Sprague-Dawley rats [5]): 1; Adverse reaction: Tongue stretching (Sprague-Dawley rats [5]): 0; Adverse reaction: Tremor (Sprague-Dawley rats [5]): 0; Adverse reaction: the four limbs rigidity (Sprague-Dawley rats [5]): 0; After the infusion is stopped: Righting reflex recovery time (SD rats): 16 to 20 min; Recovery time after stopping infusion (SD rats): 27 to 35 min; Types and incidence of adverse reactions: Red urine (SD rats): 6/6; Types and incidence of adverse reactions: Tremor (SD rats): 2/6; Sedation onset time (SD rats): <5 min; Minimal lethal dose (Sprague-Dawley rats [6]): >8.3 mg/kg
C[C@H](c1ccccc1)n1cnc(F)c1C(=O)COCCC1CCC1 [Compound C74] | – | – | – | – | – | – | – | – | – | – | – | – | – | – | – | 0.04 to 0.5 mg/kg | >42.9 | 1.37 ± 0.63 min | 5.68 ± 1.10 min | 0 | Onset time (Sprague-Dawley rats [5]; unit min): <60 s; Adverse reaction: Cough, broken-winded (Sprague-Dawley rats [5]): 0; Adverse reaction: Euphoria (Sprague-Dawley rats [5]): 0; Adverse reaction: Red urine (Sprague-Dawley rats [5]): 8; Adverse reaction: Slower breathing, Tetany convulsion (Sprague-Dawley rats [5]): 0; Adverse reaction: Systemic stiffness, Convulsions, Opisthotonus (Sprague-Dawley rats [5]): 0; Adverse reaction: Tongue stretching (Sprague-Dawley rats [5]): 0; Adverse reaction: Tremor (Sprague-Dawley rats [5]): 1; Adverse reaction: the four limbs rigidity (Sprague-Dawley rats [5]): 0; After the infusion is stopped: Righting reflex recovery time (SD rats): 13 to 18 min; Recovery time after stopping infusion (SD rats): 18 to 24 min; Types and incidence of adverse reactions: Red urine (SD rats): 6/6; Types and incidence of adverse reactions: Tongue stretching (SD rats): Tongue stretching(4/6); Types and incidence of adverse reactions: Tremor (SD rats): 4/6; Sedation onset time (SD rats): <5 min; Minimal lethal dose (Sprague-Dawley rats [6]): >6.0 mg/kg
CCC(CC)OCC(=O)c1cncn1[C@H](C)c1ccccc1 [Compound C36] | – | – | – | – | – | – | – | – | – | – | – | – | – | – | – | 2 to 10 mg/kg | >3.0 | 4.02 ± 1.09 min | 15.57 ± 4.94 min | 0 | Onset time (Sprague-Dawley rats [5]; unit s): <30 s; Adverse reaction: Cough, broken-winded (Sprague-Dawley rats [5]): 0; Adverse reaction: Euphoria (Sprague-Dawley rats [5]): 0; Adverse reaction: Red urine (Sprague-Dawley rats [5]): 8; Adverse reaction: Slower breathing, Tetany convulsion (Sprague-Dawley rats [5]): 0; Adverse reaction: Systemic stiffness, Convulsions, Opisthotonus (Sprague-Dawley rats [5]): 0; Adverse reaction: Tongue stretching (Sprague-Dawley rats [5]): 0; Adverse reaction: Tremor (Sprague-Dawley rats [5]): 0; Adverse reaction: the four limbs rigidity (Sprague-Dawley rats [5]): 3; Minimal lethal dose (Sprague-Dawley rats [6]): >15.2 mg/kg
